14 substances from paper doi:10.1101/2024.12.16.628070v1 (bioRxiv, 2024) can be followed below.

The term MIC denotes the least concentration at which growth counts as inhibited. Higher therefore signals a need for much substance.

Where two headings read alike, the source gives them in different places. Where no end group is shown, it is not given here.

One assay relates to Escherichia coli. It counts as cell-based.
Another assay has as its system Staphylococcus aureus. Kind of assay: MIC, broth microdilution. It counts as cell-based. The note with it: strain ATCC 29737. In general terms: Dilution methods test growth across graded concentrations, often in twofold steps.
The subject of the next assay is Acinetobacter baumannii. Kind of assay: MIC, broth microdilution. Type of assay: cell-based. Conditions: strain ATCC 19606.
Another assay has as its system Pseudomonas aeruginosa. Put plainly: MIC, broth microdilution. It counts as cell-based. Conditions: strain ATCC 9027.
The test system of a further assay is Klebsiella pneumoniae. Kind of assay: MIC, broth microdilution. Type of assay: cell-based. Conditions: strain ATCC 700603.
The test system of a further assay is Enterobacter cloacae. Put plainly: MIC, broth microdilution. It counts as cell-based. Conditions: strain ATCC 13047.
In the next assay the test system is Enterococcus faecalis. Put plainly: MIC, broth microdilution. Type of assay: cell-based. The note with it: strain ATCC 29212.
In another assay the test system is Bacillus subtilis. Put plainly: MIC, broth microdilution. It counts as cell-based. Conditions: strain ATCC 6633.
A further assay deals with Morganella morganii. Put plainly: MIC, broth microdilution. It counts as cell-based. The note with it: strain ATCC 25830.
Another assay relates to E. coli M6. It counts as cell-based, Escherichia coli. Conditions: sub-inhibitory concentrations, MHB.
The mark [1] stands for this setting: strain ATCC 25922 (WT), broth microdilution, MHB, 18-20 h, 37 °C.

Regarding dynobactin A [reference compound], the MIC is 16 µg/mL against Escherichia coli (K12 MG1655 BamA F394V, E435K, G443D); more than 128 µg/mL against Escherichia coli (K12 MG1655 BamA G429V, G807V); 8 µg/mL with Escherichia coli (setting [1]); 16 µg/mL in the assay on Escherichia coli (strain K12 MG1655 (WT)).
Consider “WVNAFANWTKRF (also: bicyclic or more (positions not given here)) [Compound 8, xenorceptide A8]”, for which the minimum inhibitory concentration (MIC) is more than 64 µg/mL with Staphylococcus aureus; 2 µg/mL in the assay on Escherichia coli (setting [1]); more than 64 µg/mL in the assay with Acinetobacter baumannii; 64 µg/mL with Pseudomonas aeruginosa; 4 µg/mL with Klebsiella pneumoniae.
Take “WVNAFANWPKRF (also: bicyclic or more (positions not given here)) [Compound 13, xenorceptide A13]”: the MIC is more than 64 µg/mL against Staphylococcus aureus; 8 µg/mL against Escherichia coli (setting [1]); more than 64 µg/mL against Acinetobacter baumannii; more than 64 µg/mL with Enterobacter cloacae; more than 64 µg/mL against Enterococcus faecalis; 32 µg/mL against Klebsiella pneumoniae.
Consider “WINAFGNWTKSF (also: bicyclic or more (positions not given here)) [Compound 16, xenorceptide A16]”, for which the MIC in the assay with Staphylococcus aureus, in the assay on Escherichia coli (setting [1]), in the assay on Acinetobacter baumannii, against Enterobacter cloacae, against Enterococcus faecalis and in the assay on Klebsiella pneumoniae was more than 64 µg/mL throughout.
“WINAFANWTKRI (also: bicyclic or more (positions not given here)) [Compound 3, xenorceptide A3]”: the MIC in the assay on Staphylococcus aureus was more than 64 µg/mL; in the assay on Escherichia coli (setting [1]), 8 µg/mL; with Acinetobacter baumannii, more than 64 µg/mL; against Bacillus subtilis it was more than 64 µg/mL; in the assay on Morganella morganii, 64 µg/mL; in the assay with Pseudomonas aeruginosa, 64 µg/mL. The same substance had an MIC against Klebsiella pneumoniae of 8 µg/mL.
On to “WVNAYARWTNRF (also: bicyclic or more (positions not given here)) [Compound 4, xenorceptide A4]”, for which the minimal inhibitory concentration (MIC) in the assay with Staphylococcus aureus is more than 64 µg/mL; with Escherichia coli (setting [1]), 8 µg/mL; in the assay on Acinetobacter baumannii it was more than 64 µg/mL; in the assay on Bacillus subtilis, more than 64 µg/mL; against Morganella morganii, 64 µg/mL; against Pseudomonas aeruginosa, more than 64 µg/mL. The minimal inhibitory concentration (MIC) against Klebsiella pneumoniae was 16 µg/mL.
As for “WVNAFANWSKSF (also: bicyclic or more (positions not given here)) [Compound 6, xenorceptide A6]”, the minimal inhibitory concentration (MIC) is more than 64 µg/mL with Staphylococcus aureus; 64 µg/mL against Escherichia coli (setting [1]); more than 64 µg/mL against Acinetobacter baumannii; more than 64 µg/mL with Pseudomonas aeruginosa; more than 64 µg/mL with Klebsiella pneumoniae.
As to “WVNAFAKWTKRI (also: bicyclic or more (positions not given here)) [Compound 11, xenorceptide A11]”, the minimum inhibitory concentration (MIC) is more than 64 µg/mL with Staphylococcus aureus; 4 µg/mL against Escherichia coli (setting [1]); more than 64 µg/mL in the assay on Acinetobacter baumannii; 8 µg/mL in the assay with Enterobacter cloacae; more than 64 µg/mL against Enterococcus faecalis; 8 µg/mL against Klebsiella pneumoniae.
On to colistin [reference compound], for which, in the assay with E. coli M6, the “time to development of resistance in serial passage” value stood at 3 days.
On to “WVNAFARWDKKF (also: bicyclic or more (positions not given here)) [Compound 7, xenorceptide A7]”, for which the MIC against Staphylococcus aureus was more than 64 µg/mL; with Escherichia coli (setting [1]) it was 64 µg/mL; with Acinetobacter baumannii it was more than 64 µg/mL; against Pseudomonas aeruginosa it was more than 64 µg/mL; with Klebsiella pneumoniae, more than 64 µg/mL.
Take “WVNAYARWTKRF (also: bicyclic or more (positions not given here)) [Compound 12, xenorceptide A12]”: the MIC with Staphylococcus aureus was more than 64 µg/mL; against Escherichia coli (setting [1]), 4 µg/mL; in the assay with Acinetobacter baumannii it was more than 64 µg/mL; in the assay on Enterobacter cloacae, more than 64 µg/mL; in the assay on Enterococcus faecalis it was more than 64 µg/mL; in the assay with Klebsiella pneumoniae it was 16 µg/mL.
Turning to “WVNAFVNWPKSF (also: bicyclic or more (positions not given here)) [Compound 5, xenorceptide A5]”, the MIC was more than 64 µg/mL against Staphylococcus aureus; 16 µg/mL in the assay with Escherichia coli (setting [1]); more than 64 µg/mL against Acinetobacter baumannii; more than 64 µg/mL in the assay with Pseudomonas aeruginosa; 32 µg/mL in the assay with Klebsiella pneumoniae.
As for “WVNAFGNWSKSL (also: bicyclic or more (positions not given here)) [Compound 14, xenorceptide A14]”, the minimum inhibitory concentration (MIC) was more than 64 µg/mL against Staphylococcus aureus; 64 µg/mL against Escherichia coli (setting [1]); more than 64 µg/mL against Acinetobacter baumannii; 64 µg/mL against Enterobacter cloacae; more than 64 µg/mL with Enterococcus faecalis; more than 64 µg/mL against Klebsiella pneumoniae.
Consider “WVNAFANWSKAL (also: bicyclic or more (positions not given here)) [Compound 15, xenorceptide A15]”, for which the minimal inhibitory concentration (MIC) was more than 64 µg/mL with Staphylococcus aureus; 64 µg/mL against Escherichia coli (setting [1]); more than 64 µg/mL in the assay with Acinetobacter baumannii; more than 64 µg/mL in the assay on Enterobacter cloacae; more than 64 µg/mL with Enterococcus faecalis; more than 64 µg/mL in the assay with Klebsiella pneumoniae.
